Test results as given in ChEMBL document CHEMBL1137109, “Structure-based virtual screening and biological evaluation of potent and selective ADAM12 inhibitors” (Bioorg Med Chem Lett, 2004).

Assays:
[1] = target: T1, Disintegrin and metalloproteinase domain-containing protein 9 (Homo sapiens, UniProt Q13443); assay: In vitro inhibition of A disintegrin and metalloprotease domain 9 (ADAM9)
T1 sequence (Q13443 whole entry): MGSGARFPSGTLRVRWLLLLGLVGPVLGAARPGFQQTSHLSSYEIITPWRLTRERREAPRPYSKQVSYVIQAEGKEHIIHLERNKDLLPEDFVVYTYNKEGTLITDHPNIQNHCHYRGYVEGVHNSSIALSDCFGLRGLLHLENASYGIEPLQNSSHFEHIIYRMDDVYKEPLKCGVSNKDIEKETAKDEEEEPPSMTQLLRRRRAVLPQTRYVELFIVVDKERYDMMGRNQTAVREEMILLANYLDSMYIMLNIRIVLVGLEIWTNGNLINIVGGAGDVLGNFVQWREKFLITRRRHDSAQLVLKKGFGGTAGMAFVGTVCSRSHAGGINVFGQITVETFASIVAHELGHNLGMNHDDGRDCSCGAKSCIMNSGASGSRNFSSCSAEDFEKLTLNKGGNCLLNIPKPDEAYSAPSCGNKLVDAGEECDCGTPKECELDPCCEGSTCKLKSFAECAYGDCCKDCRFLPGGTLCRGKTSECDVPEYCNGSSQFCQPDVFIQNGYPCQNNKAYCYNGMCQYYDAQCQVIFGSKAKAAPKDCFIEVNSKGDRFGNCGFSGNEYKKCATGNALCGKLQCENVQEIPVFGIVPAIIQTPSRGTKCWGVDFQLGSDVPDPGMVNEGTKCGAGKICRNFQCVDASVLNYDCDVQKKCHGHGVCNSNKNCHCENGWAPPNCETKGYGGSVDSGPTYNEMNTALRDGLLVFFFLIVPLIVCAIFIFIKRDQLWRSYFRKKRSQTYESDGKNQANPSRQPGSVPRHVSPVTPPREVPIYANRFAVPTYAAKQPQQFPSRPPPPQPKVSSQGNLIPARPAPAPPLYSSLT

[2] = target: T2, Disintegrin and metalloproteinase domain-containing protein 12 (Homo sapiens, UniProt O43184); assay: Inhibition of A disintegrin and metalloprotease domain 12 (ADAM12) binding in cell based assay
T2 sequence (O43184 whole entry): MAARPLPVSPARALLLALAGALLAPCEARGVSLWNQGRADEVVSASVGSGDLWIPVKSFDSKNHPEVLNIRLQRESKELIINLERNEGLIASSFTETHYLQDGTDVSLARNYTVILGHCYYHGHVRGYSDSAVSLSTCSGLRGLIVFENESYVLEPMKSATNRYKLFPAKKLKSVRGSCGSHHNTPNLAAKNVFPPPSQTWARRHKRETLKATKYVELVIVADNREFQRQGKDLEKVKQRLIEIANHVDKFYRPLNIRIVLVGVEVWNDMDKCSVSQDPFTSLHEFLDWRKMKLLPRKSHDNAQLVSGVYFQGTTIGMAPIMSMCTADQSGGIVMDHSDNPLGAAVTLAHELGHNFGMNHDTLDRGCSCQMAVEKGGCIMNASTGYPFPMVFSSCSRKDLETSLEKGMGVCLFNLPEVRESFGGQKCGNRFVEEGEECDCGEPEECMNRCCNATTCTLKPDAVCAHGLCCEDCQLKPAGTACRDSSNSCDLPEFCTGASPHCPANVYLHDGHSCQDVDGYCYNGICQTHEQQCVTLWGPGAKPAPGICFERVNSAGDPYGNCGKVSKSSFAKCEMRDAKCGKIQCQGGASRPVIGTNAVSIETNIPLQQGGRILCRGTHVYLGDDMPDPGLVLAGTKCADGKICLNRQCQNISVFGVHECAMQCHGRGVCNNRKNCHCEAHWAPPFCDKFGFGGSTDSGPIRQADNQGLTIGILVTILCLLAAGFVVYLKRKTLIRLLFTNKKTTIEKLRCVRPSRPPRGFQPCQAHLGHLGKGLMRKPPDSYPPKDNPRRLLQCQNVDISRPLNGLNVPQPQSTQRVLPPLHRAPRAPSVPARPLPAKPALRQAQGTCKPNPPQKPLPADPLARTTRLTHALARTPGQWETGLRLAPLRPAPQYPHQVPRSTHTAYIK

[3] = target: Disintegrin and metalloproteinase domain-containing protein 17 (Homo sapiens, UniProt P78536); assay: In vitro inhibition of A disintegrin and metalloprotease domain 17 (ADAM17, TACE)
[4] = target: T3, Disintegrin and metalloproteinase domain-containing protein 10 (Homo sapiens, UniProt O14672); assay: In vitro inhibition of A disintegrin and metalloprotease domain 10 (ADAM10)
T3 sequence (O14672 whole entry): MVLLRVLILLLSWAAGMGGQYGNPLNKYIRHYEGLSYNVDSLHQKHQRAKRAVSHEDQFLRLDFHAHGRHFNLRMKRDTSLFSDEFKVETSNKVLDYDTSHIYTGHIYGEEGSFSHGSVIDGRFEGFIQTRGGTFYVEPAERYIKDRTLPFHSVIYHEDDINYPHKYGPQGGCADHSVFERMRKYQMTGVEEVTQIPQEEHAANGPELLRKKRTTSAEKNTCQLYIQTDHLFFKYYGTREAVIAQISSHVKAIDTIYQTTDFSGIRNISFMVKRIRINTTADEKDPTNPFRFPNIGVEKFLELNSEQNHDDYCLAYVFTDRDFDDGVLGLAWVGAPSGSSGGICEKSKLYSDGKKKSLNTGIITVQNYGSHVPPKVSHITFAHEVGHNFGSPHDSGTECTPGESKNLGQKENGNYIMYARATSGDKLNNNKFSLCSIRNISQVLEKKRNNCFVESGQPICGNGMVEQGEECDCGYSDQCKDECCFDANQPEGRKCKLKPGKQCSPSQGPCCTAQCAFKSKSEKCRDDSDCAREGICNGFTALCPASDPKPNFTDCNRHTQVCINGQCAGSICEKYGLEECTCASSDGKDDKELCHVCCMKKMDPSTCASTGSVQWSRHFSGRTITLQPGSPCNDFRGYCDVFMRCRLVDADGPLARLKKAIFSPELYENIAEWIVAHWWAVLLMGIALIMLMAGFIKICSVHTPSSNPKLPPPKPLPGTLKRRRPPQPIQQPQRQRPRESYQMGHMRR

Disintegrin and metalloproteinase domain-containing protein 17, sequence (P78536 whole entry, the tested form may be a part): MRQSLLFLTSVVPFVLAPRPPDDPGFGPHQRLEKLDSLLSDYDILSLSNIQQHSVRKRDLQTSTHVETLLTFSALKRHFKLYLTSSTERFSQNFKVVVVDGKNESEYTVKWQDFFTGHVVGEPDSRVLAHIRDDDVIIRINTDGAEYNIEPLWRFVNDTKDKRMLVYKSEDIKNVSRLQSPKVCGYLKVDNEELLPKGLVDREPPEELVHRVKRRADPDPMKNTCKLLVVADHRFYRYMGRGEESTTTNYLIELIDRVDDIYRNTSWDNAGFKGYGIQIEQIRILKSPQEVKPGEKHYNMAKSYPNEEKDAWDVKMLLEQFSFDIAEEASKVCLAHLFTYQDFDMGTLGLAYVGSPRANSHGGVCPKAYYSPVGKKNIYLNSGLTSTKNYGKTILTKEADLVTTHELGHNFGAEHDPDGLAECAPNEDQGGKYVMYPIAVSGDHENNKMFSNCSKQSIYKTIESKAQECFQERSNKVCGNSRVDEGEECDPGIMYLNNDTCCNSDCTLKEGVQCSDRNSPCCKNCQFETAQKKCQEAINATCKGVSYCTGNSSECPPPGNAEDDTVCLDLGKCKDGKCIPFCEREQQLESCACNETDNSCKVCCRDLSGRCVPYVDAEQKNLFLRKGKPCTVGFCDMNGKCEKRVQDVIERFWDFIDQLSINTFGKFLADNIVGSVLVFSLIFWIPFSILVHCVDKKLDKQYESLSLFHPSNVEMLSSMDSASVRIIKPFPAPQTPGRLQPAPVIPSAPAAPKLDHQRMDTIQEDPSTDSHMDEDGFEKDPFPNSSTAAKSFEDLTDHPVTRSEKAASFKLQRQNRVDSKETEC

| Structure (SMILES) | IC50 [1] | IC50 [2] | IC50 [3] | IC50 [4] |
| --- | --- | --- | --- | --- |
| O=C(O)CNC(=O)/C(=C\c1cccc(Br)c1)NC(=O)c1ccco1 |  | 16.7 nM |  | > 10500 nM |
| CC(NC(=O)/C(=C\c1ccco1)NC(=O)c1ccco1)C(=O)O (stereo unspecified) |  | 42.3 nM |  | 10500 nM |
| CC(NC(=O)/C(=C\c1ccc(Br)cc1)NC(=O)c1ccc(Br)o1)C(=O)O (stereo unspecified) |  | 24.8 nM |  |  |

Continued, values first:

| IC50 [1] | IC50 [2] | IC50 [3] | IC50 [4] | Structure (SMILES) |
| --- | --- | --- | --- | --- |
| 1 nM | 5.93 nM | 7.5 nM | 8.1 nM | CNC(=O)[C@H](Cc1c[nH]c2ccccc12)NC(=O)[C@@H](CC(=O)NO)CC(C)C [ILOMASTAT] |
|  | 40.5 nM |  | > 10500 nM | CC(C)C(NC(=O)/C(=C\c1ccccc1F)NC(=O)c1ccccc1)C(=O)O (stereo unspecified) |
